Assay results reported in patent US10189773B2, “In-vivo gelling pharmaceutical pre-formulation” (MEDICUS BIOSCIENCES, LLC, priority 2010, dated 2019).

Test: Saturated solution of DDP or DCP in phosphate and borate buffers
Assay type: physicochemical
Details: 25° C.
Description: Samples containing DDP or DCP were protected from light as a precaution.

| SMILES | final concentration of saturated solution (borate buffer (pH of 7.94)) | final concentration of saturated solution (phosphate buffer) |
| --- | --- | --- |
| N.N.[Cl][Pt][Cl] [DDP, cisdiamminedichloroplatinum(II)] | 1.3 mg/mL | 1.3 mg/mL |
| N.N.O=C([O-])C1(C(=O)[O-])CCC1.[Pt+2] [DCP, cis-Diammine(1,1-cyclobutanedicarboxylato)platinum(II)] | 15.6 mg/mL | 14.7 mg/mL |
